In patent US20200316084A1, “METHODS TO TARGET TRANSCRIPTIONAL CONTROL AT SUPER-ENHANCER REGIONS” (TOLERO PHARMACEUTICALS, INC., priority 2014, published 2020):
pIC50: −log10 of the molar value.

Key:
MV4-11 cells = test: MV4-11 subcutaneous xenograft, tumor volume by caliper; format: in vivo, athymic Nu/Nu mice; settings: for effect on tumor volume: 25 mg/kg JQ-1, 2.5 mg/kg alvocidib or both, intraperitoneally once daily for 5 days, total of 3 weeks
From the text: (§1) The AML cell line, MV4-11 is MLL fusion and FLT3-ITD positive. The MLL fusion makes this cell line particularly dependent upon super-enhancer function for driving oncogenesis. MV4-11 cells were implanted subcutaneously in athymic Nu/Nu mice and allowed to establish until tumors reached 100-200 mm^3. JQ-1, a BET protein inhibitor, and alvocidib, a Cdk inhibitor, were used alone and in combination in order to determine the effect of the drug(s) on tumor volume. Animals were stratified into 4 groups and administered one of four treatments: vehicle, 25 mg/kg JQ-1, 2.5 mg/kg alvocidib, or a combination of the two drugs at these doses. The drugs were administered intraperitoneally, once daily for 5 days, for a total of 3 weeks. Tumor volume was measured twice weekly by caliper measurement. […] Weight gain in vehicle and individual drug-treated mice could be attributed to tumor growth. Weight gain in the mice given the combination treatment could be attributed to the overall health and food intake of the mice.

c-MYC = c-MYC expression by RT-qPCR in MV4-11 cells; format: cell-based; settings: 2 hours, various concentrations
Procedure: The c-MYC gene is well known to be regulated by the super-enhancer complex in AML cells. JQ-1, a BET protein inhibitor, and alvocidib, a Cdk inhibitor, were used alone and in combination in order to determine the effect of the drug(s) on c-MYC expression. MV4-11 cells were treated with various concentrations of alvocidib and/or JQ-1 for 2 hours. DMSO-treated controls were also included. Treatment was stopped by lysing the cells and isolating RNA for RT-qPCR analysis. The expression of c-MYC was determined and normalized to the housekeeping gene, HPRT1 and to the DMSO-treated control.

MOLM13 = test: Cell viability by Cell Titer GLO, MOLM13; format: cell-based; settings: for pIC50: MOLM13, then 48 h inhibitor
Procedure: (§2) MOLM13 and MV4-11 are MLL fusion and FLT3-ITD positive, AML cells lines. Both cell lines were treated with 20 nM of alvocidib, a Cdk inhibitor, for 48 hours or DMSO control, followed by the addition of JQ-1, an inhibitor of BET proteins, at various concentrations (10 μM-0.0003 μM) or by the addition of panobinostat, an inhibitor of HDAC, at various concentrations (10 μM-0.0003 μM) for 48 additional hours. At completion, cell viability was measured by Cell Titer GLO reagent. IC50 values were determined for JQ-1 and panobinostat with and without the low dose of alvocidib. Addition of 20 nM alvocidib increased the potency of JQ-1, as shown by an IC50 value of 2-fold lower.

MV4-11 = test: Cell viability by Cell Titer GLO, MV4-11; format: cell-based; settings: then 48 h inhibitor
Procedure: as §2

[1] = Body weight of MV4-11 xenograft mice; format: in vivo, athymic Nu/Nu mice; settings: throughout the study; 25 mg/kg JQ-1, 2.5 mg/kg alvocidib or both
From the text: as §1

MYC [2] = test: MYC expression relative to HPRT in MV4-11 cells; format: cell-based; settings: alvocidib single agent, two hours
Procedure: (§3) To determine the MYC and MCL-1 inhibitory activity of alvocidib, MV4-11 cells were treated with alvocidib for two hours and the expression of MYC and MCL-1 relative to HPRT was determined.

MCL-1 [3] = test: MCL-1 expression relative to HPRT in MV4-11 cells; format: cell-based; settings: alvocidib single agent, two hours
Procedure: as §3

CDK9 and Hexim1 = CDK9 and Hexim1 (Homo sapiens, UniProt P50750); test: CDK9/Hexim1 association, immunoprecipitation and western blotting in MV4-11 cells; format: cell-based
Procedure: MV4-11 cells were seeded and treated with alvocidib in identical concentrations and doses. Cells were collected at given times and subjected to high salt lysis buffer and immunoprecipitation followed by western blotting. […] FIGS. 11A and 11B provide results of a dose escalation study performed according to the above general procedure. […] Representative western blot is provided in FIG. 11A with quantification of the western blot in FIG. 11B.
Representative western blot is provided in FIG. 12A with quantification of the western blot in FIG. 12B.

[4] = system: super enhancer complex regulated genes; test: Super enhancer complex regulated genes, mRNA expression in A549 cells; format: cell-based, human
Procedure: A549 cells are adenocarcinomic human alveolar basal epithelial cells used as a type II pulmonary epithelial model (solid tumor). These cells were seeded and treated with alvocidib in identical concentrations and doses. Treatment was stopped by lysing the cells and isolating RNA for RT-qPCR analysis. […] The expression of mRNA was determined and normalized to β-actin and the control.

MCL-1 and c-MYC/N-MYC [5] = test: Protein expression by western blotting in A549 cells; format: cell-based, human; settings: 100 nM, time course
Procedure: (§4) A549 cells and SK-N-AS cells (human adrenal neuroblastoma cell line) were seeded and treated with alvocidib at concentrations of 100 nM and 300 nM respectively. Cells were collected at given times and total protein was extracted and detected using western blotting.

MCL-1 and c-MYC/N-MYC [6] = test: Protein expression by western blotting in SK-N-AS cells; format: cell-based, human; settings: 300 nM, time course
Procedure: as §4

MCL-1 [7] = test: MCL-1 mRNA expression time course in MV4-11 cells, RT-qPCR; format: cell-based; settings: MV4-11, 100 nM
Procedure: MV4-11 cells were seeded and treated with alvocidib at a concentration of 100 nM. […] Cells were harvested and detection of mRNA was carried out using RT-qPCR analysis in the manner described in previous examples. Expression of MCL-1 was compared to expression of controls and untreated cells. […] There appears to be no inhibition on expression by the 3 hour time point.

MCL-1 [8] = test: MCL-1 mRNA expression in A549 cells, alvocidib with JQ-1, RT-qPCR; format: cell-based, human; settings: JQ-1 0 nM-50 nM 1 hour, then alvocidib 0 nM-100 nM 2 hours
Procedure: A549 cells were seeded and treated with alvocidib at concentrations ranging from 0 nM-100 nM in combination with JQ-1 at concentrations ranging from 0 nM-50 nM. Cells were first treated with JQ-1 for 1 hour followed by treatment with alvocidib for 2 hours.

MYC [9] = test: MYC mRNA expression in A549 cells, RT-qPCR; format: cell-based, human; settings: 0-8 μM, 2 hours
Procedure: (§5) A549 cells were seeded and treated with alvocidib at concentrations ranging from 0-8 μM for 2 hours. Following the treatment of solid tumor cells, cells were harvested and mRNA was detected using RT-qPCR in the manner described in previous examples.

MCL-1 [10] = test: MCL-1 mRNA expression in A549 cells, RT-qPCR; format: cell-based, human; settings: 0-8 μM, 2 hours
Procedure: as §5

Chain of CDK9 and Hexim1 (P50750 whole entry): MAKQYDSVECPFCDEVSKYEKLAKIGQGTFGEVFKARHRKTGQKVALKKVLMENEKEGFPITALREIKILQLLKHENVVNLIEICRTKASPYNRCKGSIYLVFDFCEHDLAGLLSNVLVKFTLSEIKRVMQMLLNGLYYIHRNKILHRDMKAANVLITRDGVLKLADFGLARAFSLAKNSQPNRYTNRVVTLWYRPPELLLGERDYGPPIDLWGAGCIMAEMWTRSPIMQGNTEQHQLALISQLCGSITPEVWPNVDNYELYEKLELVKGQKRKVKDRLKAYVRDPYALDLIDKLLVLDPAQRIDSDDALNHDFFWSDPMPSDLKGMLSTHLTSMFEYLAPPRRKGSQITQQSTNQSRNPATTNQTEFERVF
Chain of CDK9 and Hexim1 (O60563 whole entry partner): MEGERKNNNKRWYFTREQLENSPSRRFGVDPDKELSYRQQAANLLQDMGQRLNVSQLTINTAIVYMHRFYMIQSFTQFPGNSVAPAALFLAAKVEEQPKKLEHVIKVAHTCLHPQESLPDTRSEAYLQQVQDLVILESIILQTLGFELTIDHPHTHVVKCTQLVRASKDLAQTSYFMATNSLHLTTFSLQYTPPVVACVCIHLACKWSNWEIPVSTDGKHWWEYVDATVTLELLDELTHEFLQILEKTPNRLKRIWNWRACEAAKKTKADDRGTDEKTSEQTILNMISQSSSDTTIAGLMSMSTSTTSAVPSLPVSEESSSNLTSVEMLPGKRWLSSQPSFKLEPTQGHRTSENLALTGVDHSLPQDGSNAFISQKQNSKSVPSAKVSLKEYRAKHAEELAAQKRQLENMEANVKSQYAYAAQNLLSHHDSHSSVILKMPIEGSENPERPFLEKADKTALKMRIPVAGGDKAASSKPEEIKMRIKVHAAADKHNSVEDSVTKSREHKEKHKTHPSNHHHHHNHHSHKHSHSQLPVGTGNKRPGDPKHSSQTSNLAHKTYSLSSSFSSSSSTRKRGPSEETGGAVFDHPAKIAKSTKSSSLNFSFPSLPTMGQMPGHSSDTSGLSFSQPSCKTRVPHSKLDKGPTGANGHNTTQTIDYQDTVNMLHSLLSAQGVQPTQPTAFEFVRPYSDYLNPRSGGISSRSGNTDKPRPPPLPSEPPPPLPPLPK

**Q.** Which results are given for `Cc1sc2c(c1C)C(c1ccc(Cl)cc1)=N[C@@H](CC(=O)OC(C)(C)C)c1nnc(C)n1-2` [JQ-1]?
**A.** effect on tumor volume (MV4-11 cells): no measurable activity; expression of c-MYC normalized to HPRT1 and DMSO control (c-MYC): downregulated; pIC50 (MOLM13; 20 nM alvocidib 48 h): 6.68; pIC50 (MOLM13; without alvocidib (DMSO 48 h)): 6.28; fold lower IC50 on addition of 20 nM alvocidib (MOLM13; MOLM13 and MV4-11): 2 fold; pIC50 (MV4-11; 20 nM alvocidib 48 h): 6.88; pIC50 (MV4-11; without alvocidib (DMSO 48 h)): 6.64; body weight [1]: comparable

**Q.** With `Cc1[nH]c2ccccc2c1CCNCc1ccc(/C=C/C(=O)NO)cc1` [Panobinostat, panobinostat] as the compound, how does the pIC50 (MOLM13; Homo sapiens, MOLM-13, 48 h, 20 nM alvocidib 48 h) read?
**A.** Its pIC50 is 8.30.

**Q.** And the pIC50 (MOLM13; Homo sapiens, MOLM-13, 48 h, without alvocidib (DMSO 48 h))?
**A.** The pIC50 was 7.80.

**Q.** What about the pIC50 (MV4-11; Homo sapiens, MV4-11, 48 h, 20 nM alvocidib 48 h) of the same compound?
**A.** Its pIC50 is 8.52.

**Q.** What about the pIC50 (MV4-11; Homo sapiens, MV4-11, 48 h, without alvocidib (DMSO 48 h)) of the same compound?
**A.** Its pIC50 is 7.74.

**Q.** For `CN1CC[C@H](c2c(O)cc(O)c3c(=O)cc(-c4ccccc4Cl)oc23)[C@H](O)C1` [alvocidib], which “tumor size relative to vehicle” value (MV4-11 cells; 2.5 mg/kg alvocidib i.p., throughout the study) is on record?
**A.** Its value is “approximately 50%”.

**Q.** What about the “effect on tumor volume” value (MV4-11 cells) of the same compound?
**A.** The value was “moderate activity”.

**Q.** What about the “expression of c-MYC normalized to HPRT1 and DMSO control” value (c-MYC) of the same compound?
**A.** The value was “downregulated”.

**Q.** And the MYC expression (MYC [2])?
**A.** Its MYC expression is “completely eliminates”.

**Q.** What about the “reduction of MCL-1 expression” value (MCL-1 [3]) of the same compound?
**A.** Its value is 60%.

**Q.** What about the CDK9/Hexim1 association (CDK9 and Hexim1; 500 nM dose, half hour time point) of the same compound?
**A.** The CDK9/Hexim1 association was “increased CDK9/Hexim1 association”.

**Q.** And the “association of CDK9 and Hexim1” value (CDK9 and Hexim1; 1 mM alvocidib, time course)?
**A.** Its value is “increases association of CDK9 and Hexim1 in a time dependent manner”.

**Q.** What about the “CDK9/Hexim1 association” value (CDK9 and Hexim1; 2 hr treatment, different doses) of the same compound?
**A.** The value was “dose dependent increase”.

**Q.** And the mRNA expression ([4]; 0.1 μM dose, 2 hour time point)?
**A.** The mRNA expression was “noticeably repressed”.

**Q.** And the “expression of mRNA normalized to β-actin and control” value ([4]; 24 and 48 hour time points)?
**A.** Its value is “downregulated the expression of mRNA completely”.

**Q.** What about the “mRNA expression relative to β-actin and vehicle control” value ([4]; doses of 1 μM up to 8 μM, 2 hours) of the same compound?
**A.** The value was “Complete repression”.

**Q.** What about the “protein expression of MCL-1 and c-MYC/N-MYC” value (MCL-1 and c-MYC/N-MYC [5]) of the same compound?
**A.** Its value is “represses protein expression”.

**Q.** And the “protein expression of MCL-1 and c-MYC/N-MYC” value (MCL-1 and c-MYC/N-MYC [6])?
**A.** Its value is “represses protein expression”.

**Q.** What about the “MCL-1 mRNA expression” value (MCL-1 [7]; 30 minute time point) of the same compound?
**A.** Its value is “repressed”.

**Q.** What about the “MCL-1 mRNA expression” value (MCL-1 [7]; 1 hour post-dose) of the same compound?
**A.** Its value is “maximum repression”.

**Q.** And the “MCL-1 mRNA expression” value (MCL-1 [7]; 2 hour time point)?
**A.** Its value is “repression is reduced”.

**Q.** What about the “MCL-1 mRNA expression” value (MCL-1 [7]; 3 hour time point) of the same compound?
**A.** The value was “no inhibition”.

**Q.** And the “MCL-1 mRNA expression” value (MCL-1 [8])?
**A.** The value was “represses MCL-1 mRNA expression”.

**Q.** What about the “MYC mRNA expression relative to HPRT1” value (MYC [9]) of the same compound?
**A.** Its value is “represses MYC mRNA expression in a dose dependent manner”.

**Q.** What about the “MCL-1 mRNA expression relative to HPRT1” value (MCL-1 [10]) of the same compound?
**A.** The value was “represses MCL-1 mRNA expression in a dose dependent manner”.

**Q.** What about the body weight [1] of the same compound?
**A.** Its body weight is “comparable”.
